Laboratory results: US9642806B2, “Antifungal compositions with improved bioavailability” (Janssen Pharmaceutica N.V., priority 1996, dated 2017)

Tests used:
[1] = Solubility in aqueous media (USP definition); assay type: physicochemical; settings: water; USP definition: more than 10,000 parts of solvent for 1 part of solute
Text: The solvent referred to herein is water.

[2] = Thermal stability at melt-extrusion temperatures; assay type: physicochemical; settings: temperatures up to 300° C.
Experimental: One of the most important parameters of melt extrusion is the temperature at which the melt-extruder is operating. […] At temperatures lower than 120° C., itraconazole will not dissolve completely in most water-soluble polymers and the extrudate will not have the required bioavailability. In addition, the process is difficult because of the high viscosity of the mixture. At temperatures of more than 300° C. the water-soluble polymer may decompose to an unacceptable level.

solubility in aqueous media [1]: practically insoluble | thermal stability (decomposition) [2]: thermally very stable
SMILES: CCC(C)n1ncn(-c2ccc(N3CCN(c4ccc(OCC5COC(Cn6cncn6)(c6ccc(Cl)cc6Cl)O5)cc4)CC3)cc2)c1=O (racemic) [itraconazole, (±)-cis-4-[4-[4-[4-[[2-(2,4-dichlorophenyl)-2-(1H-1,2,4-triazol-1-yl-methyl)-1,3-dioxolan-4-yl]methoxy]phenyl]-1-piperazinyl]phenyl]-2,4-dihydro-2-(1-methylpropyl)-3H-1,2,4-triazol-3-one]
